Measurements reported in patent publication US10766903B2 (ALMAC DISCOVERY LIMITED, priority 2016, dated 2020).

Target: USP7 (Homo sapiens (Human), UniProt Q93009)
Assay: USP7 fluorescence polarisation (FP) biochemical assay, ubiquitin-Lys-TAMRA substrate
Conditions: not given
Method: Measurement of USP7 Inhibitory Activity
USP7 activity was monitored in a fluorescence polarisation (FP) homogeneous assay using the isopeptide ubiquitin-Lys-TAMRA substrate (U-558, Boston Biochem). Full-length USP7 was purchased from Boston Biochem (His6-USP7FL, E-519). Unless otherwise stated, all other reagents were purchased from Sigma-Aldrich. Enzymatic reactions were conducted in black flat-bottom polystyrene 384-well plates (Nunc) and 15 μL total volume. USP7 (2.5 nM, 5 μL) was incubated in assay buffer (50 mM HEPES (pH 7.2), 150 mM NaCl, 0.5 mM EDTA, 5 mM DTT, 0.05% BSA (w/v), 0.05% CHAPS) in the presence or absence of inhibitor (5 μl). Inhibitors were stored as 10 mM DMSO stocks in an inert environment (low humidity, dark, low oxygen, room temperature) using a Storage Pod System and serial dilutions were prepared in buffer just prior to the assay (from 200 to 0.1 μM, 8 dp curve). […] FP was measured every 15 min over a period of 1.5 h (within the linear range of the assay) using a Synergy 4 plate reader (BioTek) exciting at 530 nm and measuring the amount of parallel and perpendicular light at 575 nm. The FP signal was subsequently normalised to the control without compound present.

Sequence of USP7 (Q93009 whole entry): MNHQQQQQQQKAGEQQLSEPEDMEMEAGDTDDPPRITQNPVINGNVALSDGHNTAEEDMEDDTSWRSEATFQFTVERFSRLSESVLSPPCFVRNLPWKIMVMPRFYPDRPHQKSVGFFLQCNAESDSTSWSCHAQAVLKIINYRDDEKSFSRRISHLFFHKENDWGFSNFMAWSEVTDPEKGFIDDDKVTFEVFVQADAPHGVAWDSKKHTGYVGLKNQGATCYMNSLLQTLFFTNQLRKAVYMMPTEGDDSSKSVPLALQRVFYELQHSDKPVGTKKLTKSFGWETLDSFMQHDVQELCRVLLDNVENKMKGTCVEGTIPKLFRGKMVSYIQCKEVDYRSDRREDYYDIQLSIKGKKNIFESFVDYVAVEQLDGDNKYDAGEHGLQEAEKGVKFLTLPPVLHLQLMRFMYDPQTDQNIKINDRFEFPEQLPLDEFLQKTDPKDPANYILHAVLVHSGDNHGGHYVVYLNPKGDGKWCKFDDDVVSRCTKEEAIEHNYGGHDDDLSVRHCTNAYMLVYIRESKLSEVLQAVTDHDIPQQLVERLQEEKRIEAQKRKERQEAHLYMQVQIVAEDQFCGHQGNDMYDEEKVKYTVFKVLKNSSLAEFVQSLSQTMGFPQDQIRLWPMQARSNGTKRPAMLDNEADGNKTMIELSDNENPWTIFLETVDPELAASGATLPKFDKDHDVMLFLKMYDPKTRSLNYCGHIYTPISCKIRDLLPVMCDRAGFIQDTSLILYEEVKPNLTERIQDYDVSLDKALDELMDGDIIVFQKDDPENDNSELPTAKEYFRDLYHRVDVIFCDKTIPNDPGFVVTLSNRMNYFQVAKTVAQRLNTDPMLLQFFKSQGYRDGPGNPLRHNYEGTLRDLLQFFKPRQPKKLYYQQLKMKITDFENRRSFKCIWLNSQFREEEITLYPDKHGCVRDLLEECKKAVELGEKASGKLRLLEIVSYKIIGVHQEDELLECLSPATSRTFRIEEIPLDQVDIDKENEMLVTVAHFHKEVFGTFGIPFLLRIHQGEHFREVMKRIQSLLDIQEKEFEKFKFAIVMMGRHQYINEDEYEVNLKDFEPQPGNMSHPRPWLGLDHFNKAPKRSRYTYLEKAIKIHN

Row | IC50 | Structure (SMILES)
1 | 1000 to 200000 nM | C[C@H](CC(=O)N1CCC(O)(Cn2cnc(OCCN(C)C)cc2=O)CC1)c1ccccc1 [Example 10, (R)-6-(2-(Dimethylamino)ethoxy)-3-((4-hydroxy-1-(3-phenylbutanoyl)piperidin-4-yl)methyl)pyrimidin-4(3H)-one]

Same assay, conditions: Table 3, effect of the R2 substituent; read-out: USP7 IC50

Row | IC50 | Structure (SMILES)
2 | 3000 nM | C[C@H](CC(=O)N1CCC(O)(Cn2cnc3cn(C)nc3c2=O)CC1)c1ccccc1 [Example 20, (R)-6-((4-Hydroxy-1-(3-phenylbutanoyl)piperidin-4-yl)methyl)-2-methyl-2H-pyrazolo[4,3-d]pyrimidin-7(6H)-one]
3 | 14000 nM | Cn1nc2c(=O)n(CC3(O)CCN(C(=O)CCc4ccccc4)CC3)cnc2c1C(F)(F)F [Example 39, 6-((4-Hydroxy-1-(3-phenylpropanoyl)piperidin-4-yl)methyl)-2-methyl-3-(trifluoromethyl)-2H-pyrazolo[4,3-d]pyrimidin-7(6H)-one]

Same assay, conditions: Table 4, biochemical assay; average of at least duplicate experiments; read-out: USP7 IC50

Row | Structure (SMILES) | IC50
4 | COCC(CC(=O)N1CCC(O)(Cn2cnc3c(-c4ccc(CN)cc4)n(C)nc3c2=O)CC1)c1ccccc1 (racemic) [Example 53, (R,S)-3-(4-(Aminomethyl)phenyl)-6-((4-hydroxy-1-(4-methoxy-3-phenylbutanoyl)piperidin-4-yl)methyl)-2-methyl-2H-pyrazolo[4,3-d]pyrimidin-7(6H)-one] | < 250 nM
5 | C[C@H](CC(=O)N1CCC(O)(Cn2cnc(NC3CCCC[C@H]3N)cc2=O)CC1)c1ccccc1 (mixture of isomers) [Example 63, rac-6-(((±-trans-1,2)-2-Aminocyclohexyl)amino)-3-((4-hydroxy-1-((R)-3-phenylbutanoyl)piperidin-4-yl)methyl)pyrimidin-4(3H)-one, Formic Acid] | 250 to 999 nM
6 | C[C@H](CC(=O)N1CCC(O)(Cn2cnc(N[C@@H]3CCCC[C@@H]3N)cc2=O)CC1)c1ccccc1 (racemic) [Example 64, 6-(((±-cis-1,2)-2-Aminocyclohexyl)amino)-3-((4-hydroxy-1-((R)-3-phenylbutanoyl)piperidin-4-yl)methyl)pyrimidin-4(3H)-one, Formic Acid] | 250 to 999 nM
7 | C[C@H](CC(=O)N1CCC(O)(Cn2cnc(-c3ccncc3)cc2=O)CC1)c1ccccc1 [Example 2, (R)-3-((4-Hydroxy-1-(3-phenylbutanoyl)piperidin-4-yl)methyl)-6-(pyridin-4-yl)pyrimidin-4(3H)-one] | 1000 to 200000 nM
8 | C[C@H](CC(=O)N1CCC(O)(Cn2cnc3c(nc(-c4ccccc4)n3C)c2=O)CC1)c1ccccc1 [Example 16, (R)-1-((4-Hydroxy-1-(3-phenylbutanoyl)piperidin-4-yl)methyl)-9-methyl-8-phenyl-1H-purin-6(9H)-one] | 1000 to 200000 nM
9 | C[C@H](CC(=O)N1CCC(O)(Cn2cnc3c(ncn3-c3ccccc3)c2=O)CC1)c1ccccc1 [Example 17, (R)-1-((4-Hydroxy-1-(3-phenylbutanol)piperidin-4-yl)methyl)-9-phenyl-1H-purin-6(9H)-one] | < 250 nM
10 | C[C@H](CC(=O)N1CCC(O)(Cc2cnc3ccccn3c2=O)CC1)c1ccccc1 [Example 18, (R)-3-((4-Hydroxy-1-(3-phenylbutanoyl)piperidin-4-yl)methyl)-4H-pyrido[1,2-a]pyrimidin-4-one] | 1000 to 200000 nM
11 | C[C@H](CC(=O)N1CCC(O)(Cc2cnc3c(-c4ccccc4)cccn3c2=O)CC1)c1ccccc1 [Example 19, (R)-3-((4-Hydroxy-1-(3-phenylbutanoyl)piperidin-4-yl)methyl)-9-phenyl-4H-pyrido[1,2-a]pyrimidin-4-one] | 1000 to 200000 nM
12 | C=C(C)[C@H](C)CC(=O)N1CCC(O)(Cn2cnc3c(-c4ccccc4)n(C)nc3c2=O)CC1 [Example 35, (R)-6-((1-(3,4-Dimethylpent-4-enoyl)-4-hydroxypiperidin-4-yl)methyl)-2-methyl-3-phenyl-2H-pyrazolo[4,3-d]pyrimidin-7(6H)-one] | 250 to 999 nM
13 | C=C(C)[C@@H](CC(=O)N1CCC(O)(Cn2cnc3c(-c4ccccc4)n(C)nc3c2=O)CC1)C(F)(F)F [Example 36, (R)-6-((4-Hydroxy-1-(4-methyl-3-(trifluoromethyl)pent-4-enoyl)piperidin-4-yl)methyl)-2-methyl-3-phenyl-2H-pyrazolo[4,3-d]pyrimidin-7(6H)-one] | 1000 to 200000 nM
14 | Cn1nc2c(=O)n(CC3(O)CCN(C(=O)C[C@H](c4ccccc4)C(F)(F)F)CC3)cnc2c1-c1ccccc1 [Example 37, (R)-6-((4-Hydroxy-1-(4,4,4-trifluoro-3-phenylbutanoyl)piperidin-4-yl)methyl)-2-methyl-3-phenyl-2H-pyrazolo[4,3-d]pyrimidin-7(6H)-one] | 250 to 999 nM
15 | Cn1nc2c(=O)n(CC3(O)CCN(C(=O)CCc4ccccc4)CC3)cnc2c1C(F)(F)F [Example 39, 6-((4-Hydroxy-1-(3-phenylpropanoyl)piperidin-4-yl)methyl)-2-methyl-3-(trifluoromethyl)-2H-pyrazolo[4,3-d]pyrimidin-7(6H)-one] | 1000 to 200000 nM

Continued, values first:

Row | IC50 | Structure (SMILES)
16 | 1000 to 200000 nM | C[C@H](CC(=O)N1CCC(O)(Cn2cnc(Cl)cc2=O)CC1)c1ccccc1 [Example 1, (R)-6-Chloro-3-((4-hydroxy-1-(3-phenylbutanoyl)piperidin-4-yl)methyl)pyrimidin-4(3H)-one]
17 | 1000 to 200000 nM | C[C@H](CC(=O)N1CCC(O)(Cn2cnc(N)cc2=O)CC1)c1ccccc1 [Example 5, (R)-6-Amino-3-((4-hydroxy-1-(3-phenylbutanoyl)piperidin-4-yl)methyl)pyrimidin-4(3H)-one]
18 | 1000 to 200000 nM | C[C@H](CC(=O)N1CCC(O)(Cn2cnc(N3CCN(C)CC3)cc2=O)CC1)c1ccccc1 [Example 8, (R)-3-((4-Hydroxy-1-(3-phenylbutanoyl)piperidin-4-yl)methyl)-6-(4-methylpiperazin-1-yl)pyrimidin-4(3H)-one]
19 | 1000 to 200000 nM | COc1cc(=O)n(CC2(O)CCN(C(=O)C[C@@H](C)c3ccccc3)CC2)cn1 [Example 9, (R)-3-((4-Hydroxy-1-(3-phenylbutanoyl)piperidin-4-yl)methyl)-6-methoxypyrimidin-4(3H)-one]
20 | < 250 nM | C[C@H](CC(=O)N1CCC(O)(Cn2cnc(N3CC[C@H](N)C3)cc2=O)CC1)c1ccccc1 [Example 12, 6-((S)-3-Aminopyrrolidin-1-yl)-3-((4-hydroxy-1-((R)-3-phenylbutanoyl)piperidin-4-yl)methyl)pyrimidin-4(3H)-one]
21 | 1000 to 200000 nM | C[C@H](CC(=O)N1CCC(O)(Cn2cnc(Cl)c(N)c2=O)CC1)c1ccccc1 [Example 14, (R)-5-Amino-6-chloro-3-((4-hydroxy-1-(3-phenylbutanoyl)piperidin-4-yl)methyl)pyrimidin-4(3H)-one]
22 | 1000 to 200000 nM | C[C@H](CC(=O)N1CCC(O)(Cn2cnc3c(ncn3C)c2=O)CC1)c1ccccc1 [Example 15, (R)-1-((4-Hydroxy-1-(3-phenylbutanoyl)piperidin-4-yl)methyl)-9-methyl-1H-purin-6(9H)-one]
23 | 1000 to 200000 nM | C[C@H](CC(=O)N1CCC(O)(Cn2cnc3cn(C)nc3c2=O)CC1)c1ccccc1 [Example 20, (R)-6-((4-Hydroxy-1-(3-phenylbutanoyl)piperidin-4-yl)methyl)-2-methyl-2H-pyrazolo[4,3-d]pyrimidin-7(6H)-one]
24 | 250 to 999 nM | C[C@H](CC(=O)N1CCC(O)(Cn2cnc3c(-c4ccncc4)n(C)nc3c2=O)CC1)c1ccccc1 [Example 26, (R)-6-((4-Hydroxy-1-(3-phenylbutanoyl)piperidin-4-yl)methyl)-2-methyl-3-(pyridin-4-yl)-2H-pyrazolo[4,3-d]pyrimidin-7(6H)-one]
25 | < 250 nM | C[C@H](CC(=O)N1CCC(O)(Cn2cnc3c(C#CCO)n(C)nc3c2=O)CC1)c1ccccc1 [Example 31, (R)-6-((4-Hydroxy-1-(3-phenylbutanoyl)piperidin-4-yl)methyl)-3-(3-hydroxyprop-1-yn-1-yl)-2-methyl-2H-pyrazolo[4,3-d]pyrimidin-7(6H)-one]
26 | 1000 to 200000 nM | CC(C)c1c2c(nn1C)C(=O)N(CC1(O)CCN(C(=O)C[C@@H](C)c3ccccc3)CC1)CN2 [Example 34, (R)-6-((4-Hydroxy-1-(3-phenylbutanoyl)piperidin-4-yl)methyl)-3-isopropyl-2-methyl-5,6-dihydro-2H-pyrazolo[4,3-d]pyrimidin-7(4H)-one]

Same assay, conditions: USP7 IC50, Table 3, effect of the R2 substituent

Row | IC50 | Structure (SMILES)
27 | 600 nM | C[C@H](CC(=O)N1CCC(O)(Cn2cnc3c(C(F)(F)F)n(C)nc3c2=O)CC1)c1ccccc1 [Example 23, (R)-6-((4-Hydroxy-1-(3-phenylbutanoyl)piperidin-4-yl)methyl)-2-methyl-3-(trifluoromethyl)-2H-pyrazolo[4,3-d]pyrimidin-7(6H)-one]

Same assay, conditions: USP7 IC50, Table 4, biochemical assay; average of at least duplicate experiments

Row | Structure (SMILES) | IC50
28 | C[C@H](CC(=O)N1CCC(O)(Cn2cnc(N3C[C@@H]4C[C@H]3CN(C)C4)cc2=O)CC1)c1ccccc1 (single isomer, unassigned) [Example 180] | < 250 nM
29 | C[C@H](CC(=O)N1CCC(O)(Cn2cnc(N3C[C@H]4C[C@@H]3CN(C)C4)cc2=O)CC1)c1ccccc1 (single isomer, unassigned) [Example 181] | 250 to 999 nM

More lines, now with the values ahead:

Row | IC50 | Structure (SMILES)
30 | 250 to 999 nM | C[C@H](CC(=O)N1CCC(O)(Cn2cnc(-c3ccn[nH]3)cc2=O)CC1)c1ccccc1 [Example 3, (R)-3-((4-Hydroxy-1-(3-phenylbutanoyl)piperidin-4-yl)methyl)-6-(1H-pyrazol-5-yl)pyrimidin-4(3H)-one]
31 | 250 to 999 nM | C[C@H](CC(=O)N1CCC(O)(Cn2cnc(N3CC(N)C3)cc2=O)CC1)c1ccccc1 [Example 13, (R)-6-(3-Aminoazetidin-1-yl)-3-((4-hydroxy-1-(3-phenylbutanoyl)piperidin-4-yl)methyl)pyrimidin-4(3H)-one]
32 | 250 to 999 nM | C[C@H](CC(=O)N1CCC(O)(Cn2cnc3c(C(F)(F)F)n(C)nc3c2=O)CC1)c1ccccc1 [Example 23, (R)-6-((4-Hydroxy-1-(3-phenylbutanoyl)piperidin-4-yl)methyl)-2-methyl-3-(trifluoromethyl)-2H-pyrazolo[4,3-d]pyrimidin-7(6H)-one]
33 | 250 to 999 nM | C[C@H](CC(=O)N1CCC(O)(Cn2cnc(-c3cnn(C)c3)cc2=O)CC1)c1ccccc1 [Example 40, (R)-3-((4-Hydroxy-1-(3-phenylbutanoyl)piperidin-4-yl)methyl)-6-(1-methyl-1H-pyrazol-4-yl)pyrimidin-4(3H)-one]
